Blank lines part the entries; values can stand above or below the compound they belong to.
Tested on: 171881-019-R-J1-PDC complex spheroid growth, % test/control
Test: Anticancer human tumor 171881-019-R-J1-PDC patient-derived invasive breast carcinoma cell line growth inhibition [Asc]
Conditions: for IC50: curve of first compound; for viability, T/C: stronger effect = lower value
How it was run: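 Tumor cells were grown as multicellular spheroids with stromal HUVEC and mesenchymal stem cells and treated singly or in combination. Concentrations fell in half-log steps from the clinical Cmax, or from 10 microM where none was known.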

[1] = second compound 0.01 µM, first compound 0.00316 µM
[2] = second compound 0.01 µM, first compound 0.01 µM
[3] = second compound 0.01 µM, first compound 0.0316 µM
[4] = second compound 0.01 µM, first compound 0.1 µM
[5] = second compound 0.0316 µM, first compound 0.00316 µM
[6] = second compound 0.0316 µM, first compound 0.01 µM
[7] = second compound 0.0316 µM, first compound 0.0316 µM
[8] = second compound 0.0316 µM, first compound 0.1 µM
[9] = second compound 0.1 µM, first compound 0.00316 µM
[10] = second compound 0.1 µM, first compound 0.01 µM
[11] = second compound 0.1 µM, first compound 0.0316 µM
[12] = second compound 0.1 µM, first compound 0.1 µM
[13] = second compound 0.316 µM, first compound 0.00316 µM
[14] = second compound 0.316 µM, first compound 0.01 µM
[15] = second compound 0.316 µM, first compound 0.0316 µM
[16] = second compound 0.316 µM, first compound 0.1 µM
[17] = second compound 1 µM, first compound 0.00316 µM
[18] = second compound 1 µM, first compound 0.01 µM
[19] = second compound 1 µM, first compound 0.0316 µM
[20] = second compound 1 µM, first compound 0.1 µM
[21] = second compound 0.01 µM, first compound 0.316 µM
[22] = second compound 0.01 µM, first compound 1 µM
[23] = second compound 0.0316 µM, first compound 0.316 µM
[24] = second compound 0.0316 µM, first compound 1 µM
[25] = second compound 0.1 µM, first compound 0.316 µM
[26] = second compound 0.1 µM, first compound 1 µM
[27] = second compound 0.316 µM, first compound 0.316 µM
[28] = second compound 0.316 µM, first compound 1 µM
[29] = second compound 1 µM, first compound 0.316 µM
[30] = second compound 1 µM, first compound 1 µM
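Throughout, for viability, T/C: spheroids exposed to compounds for 7 days.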

IC50 (second compound 0.03 µM): > 3000 nM | IC50 (second compound 0.0949 µM): > 3000 nM | IC50 (second compound 0.3 µM): > 3000 nM | IC50 (second compound 0.949 µM): > 3000 nM | IC50 (second compound 3 µM): > 3000 nM
Structure (SMILES): Cc1nc(N2CCC3(CC2)COC(C)C3N)c(CO)nc1Sc1ccnc(N)c1Cl (stereo not given) + CCN1C(C(=O)NC23CCC(C(=O)O)(CC2)CC3)C(c2cccc(Cl)c2F)C2(C(=O)Nc3cc(Cl)ccc32)C12CCCCC2
viability, T/C (second compound 0.03 µM, first compound 0.00949 µM): 87.3% | viability, T/C (second compound 0.03 µM, first compound 0.03 µM): 101% | viability, T/C (second compound 0.03 µM, first compound 0.0949 µM): 153% | viability, T/C (second compound 0.03 µM, first compound 0.3 µM): 152% | viability, T/C (second compound 0.03 µM, first compound 0.949 µM): 126% | viability, T/C (second compound 0.03 µM, first compound 3 µM): 109% | viability, T/C (second compound 0.0949 µM, first compound 0.00949 µM): 80.7% | viability, T/C (second compound 0.0949 µM, first compound 0.03 µM): 99.1% | viability, T/C (second compound 0.0949 µM, first compound 0.0949 µM): 165% | viability, T/C (second compound 0.0949 µM, first compound 0.3 µM): 178% | viability, T/C (second compound 0.0949 µM, first compound 0.949 µM): 121% | viability, T/C (second compound 0.0949 µM, first compound 3 µM): 114% | viability, T/C (second compound 0.3 µM, first compound 0.00949 µM): 112% | viability, T/C (second compound 0.3 µM, first compound 0.03 µM): 109% | viability, T/C (second compound 0.3 µM, first compound 0.0949 µM): 158% | viability, T/C (second compound 0.3 µM, first compound 0.3 µM): 171% | viability, T/C (second compound 0.3 µM, first compound 0.949 µM): 141% | viability, T/C (second compound 0.3 µM, first compound 3 µM): 103% | viability, T/C (second compound 0.949 µM, first compound 0.00949 µM): 90.8% | viability, T/C (second compound 0.949 µM, first compound 0.03 µM): 105% | viability, T/C (second compound 0.949 µM, first compound 0.0949 µM): 134% | viability, T/C (second compound 0.949 µM, first compound 0.3 µM): 184% | viability, T/C (second compound 0.949 µM, first compound 0.949 µM): 134% | viability, T/C (second compound 0.949 µM, first compound 3 µM): 95.2% | viability, T/C (second compound 3 µM, first compound 0.00949 µM): 109% | viability, T/C (second compound 3 µM, first compound 0.03 µM): 127% | viability, T/C (second compound 3 µM, first compound 0.0949 µM): 175% | viability, T/C (second compound 3 µM, first compound 0.3 µM): 166% | viability, T/C (second compound 3 µM, first compound 0.949 µM): 122% | viability, T/C (second compound 3 µM, first compound 3 µM): 105%

IC50 (second compound 0.01 µM): > 100 nM | IC50 (second compound 0.0316 µM): > 100 nM | IC50 (second compound 0.1 µM): > 100 nM | IC50 (second compound 0.316 µM): > 100 nM | IC50 (second compound 1 µM): > 100 nM
Structure (SMILES): Cn1ncnc1[C@H]1c2n[nH]c(=O)c3cc(F)cc(c23)N[C@@H]1c1ccc(F)cc1 + CNC(C)C(=O)NC1CN(S(=O)(=O)c2cccc(S(=O)(=O)N3CCC4CCC(C(=O)NC(c5ccccc5)c5ccccc5)N4C(=O)C(NC(=O)C(C)NC)C3)c2)CCC2CCC(C(=O)NC(c3ccccc3)c3ccccc3)N2C1=O
viability, T/C (second compound 0.01 µM, first compound 0.000316 µM): 78.9% | viability, T/C (second compound 0.01 µM, first compound 0.001 µM): 91.9% | viability, T/C [1]: 95.9% | viability, T/C [2]: 101% | viability, T/C [3]: 89.3% | viability, T/C [4]: 95.2% | viability, T/C (second compound 0.0316 µM, first compound 0.000316 µM): 103% | viability, T/C (second compound 0.0316 µM, first compound 0.001 µM): 98.5% | viability, T/C [5]: 94.8% | viability, T/C [6]: 104% | viability, T/C [7]: 104% | viability, T/C [8]: 92.4% | viability, T/C (second compound 0.1 µM, first compound 0.000316 µM): 95.3% | viability, T/C (second compound 0.1 µM, first compound 0.001 µM): 97.1% | viability, T/C [9]: 101% | viability, T/C [10]: 100% | viability, T/C [11]: 96% | viability, T/C [12]: 89% | viability, T/C (second compound 0.316 µM, first compound 0.000316 µM): 94.2% | viability, T/C (second compound 0.316 µM, first compound 0.001 µM): 97.4% | viability, T/C [13]: 94.8% | viability, T/C [14]: 95.3% | viability, T/C [15]: 97.8% | viability, T/C [16]: 90.7% | viability, T/C (second compound 1 µM, first compound 0.000316 µM): 85% | viability, T/C (second compound 1 µM, first compound 0.001 µM): 98.5% | viability, T/C [17]: 93.3% | viability, T/C [18]: 83.8% | viability, T/C [19]: 107% | viability, T/C [20]: 85.5%

IC50 (second compound 0.01 µM): > 10000 nM | IC50 (second compound 0.0316 µM): > 10000 nM | IC50 (second compound 0.1 µM): > 10000 nM | IC50 (second compound 0.316 µM): > 10000 nM | IC50 (second compound 1 µM): > 10000 nM
Structure (SMILES): O=C(c1cc(Cc2n[nH]c(=O)c3ccccc23)ccc1F)N1CCN(C(=O)C2CC2)CC1 + CNC(C)C(=O)NC1CN(S(=O)(=O)c2cccc(S(=O)(=O)N3CCC4CCC(C(=O)NC(c5ccccc5)c5ccccc5)N4C(=O)C(NC(=O)C(C)NC)C3)c2)CCC2CCC(C(=O)NC(c3ccccc3)c3ccccc3)N2C1=O
viability, T/C [3]: 101% | viability, T/C [4]: 107% | viability, T/C [21]: 109% | viability, T/C [22]: 118% | viability, T/C (second compound 0.01 µM, first compound 3.16 µM): 104% | viability, T/C (second compound 0.01 µM, first compound 10 µM): 128% | viability, T/C [7]: 100% | viability, T/C [8]: 105% | viability, T/C [23]: 93.3% | viability, T/C [24]: 128% | viability, T/C (second compound 0.0316 µM, first compound 3.16 µM): 107% | viability, T/C (second compound 0.0316 µM, first compound 10 µM): 106% | viability, T/C [11]: 108% | viability, T/C [12]: 89.4% | viability, T/C [25]: 106% | viability, T/C [26]: 104% | viability, T/C (second compound 0.1 µM, first compound 3.16 µM): 105% | viability, T/C (second compound 0.1 µM, first compound 10 µM): 112% | viability, T/C [15]: 95% | viability, T/C [16]: 96.2% | viability, T/C [27]: 99.7% | viability, T/C [28]: 119% | viability, T/C (second compound 0.316 µM, first compound 3.16 µM): 114% | viability, T/C (second compound 0.316 µM, first compound 10 µM): 122% | viability, T/C [19]: 116% | viability, T/C [20]: 113% | viability, T/C [29]: 89.4% | viability, T/C [30]: 111% | viability, T/C (second compound 1 µM, first compound 3.16 µM): 103% | viability, T/C (second compound 1 µM, first compound 10 µM): 128%

IC50 (second compound 0.01 µM): > 1000 nM | IC50 (second compound 0.0316 µM): 747 nM | IC50 (second compound 0.1 µM): 635 nM | IC50 (second compound 0.316 µM): 519 nM | IC50 (second compound 1 µM): 408 nM
Structure (SMILES): O=C(c1ccc(F)c(F)c1Nc1ccc(I)cc1F)N1CC(O)([C@@H]2CCCCN2)C1 + CNC(C)C(=O)NC1CN(S(=O)(=O)c2cccc(S(=O)(=O)N3CCC4CCC(C(=O)NC(c5ccccc5)c5ccccc5)N4C(=O)C(NC(=O)C(C)NC)C3)c2)CCC2CCC(C(=O)NC(c3ccccc3)c3ccccc3)N2C1=O
viability, T/C [1]: 98.1% | viability, T/C [2]: 103% | viability, T/C [3]: 125% | viability, T/C [4]: 202% | viability, T/C [21]: 96.9% | viability, T/C [22]: 44.9% | viability, T/C [5]: 93.8% | viability, T/C [6]: 98.2% | viability, T/C [7]: 133% | viability, T/C [8]: 203% | viability, T/C [23]: 86.4% | viability, T/C [24]: 37.6% | viability, T/C [9]: 84.7% | viability, T/C [10]: 91.3% | viability, T/C [11]: 148% | viability, T/C [12]: 191% | viability, T/C [25]: 80% | viability, T/C [26]: 30.5% | viability, T/C [13]: 115% | viability, T/C [14]: 111% | viability, T/C [15]: 145% | viability, T/C [16]: 179% | viability, T/C [27]: 68.2% | viability, T/C [28]: 25.7% | viability, T/C [17]: 92.5% | viability, T/C [18]: 110% | viability, T/C [19]: 121% | viability, T/C [20]: 158% | viability, T/C [29]: 58.1% | viability, T/C [30]: 21.4%
